These results are taken from PubChem BioAssay (NCI).

“And” between values parts separate entries of the source, which are not always exact repeats. Equal entries are not always repeated.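 Method: 48-hour compound exposure of cells in 96-well plates, five concentrations, linear interpolation of endpoints. At the GI50, growth is halved. TGI denotes the concentration required for complete inhibition of growth.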

Among the test systems are SF-539 CNS; NCI/ADR-RES ovarian; OVCAR-3 ovarian; SN12C renal; OVCAR-5 ovarian; SK-MEL-28 melanoma; RPMI-8226 leukemia; DU-145 prostate; SNB-19 CNS; HCT-15 colon.
Assay in all cases: inhibition of tumour cell growth, NCI panel, 48 h

As to `CNC12C3C4C1C1C2C3C41C(=O)N[C@H](C(=O)N(C)[C@H](C[C@@H](OC(C)=O)c1nc(C(=O)N[C@@H](Cc2ccccc2)C[C@H](C)C(=O)OC)cs1)C(C)C)C1CC1` (stereo partly drawn), the GI50 in the test with SF-539 CNS was 0.322 µM; in the test on NCI/ADR-RES ovarian, above 15 µM; in the test with OVCAR-3 ovarian it was 0.0472 µM; in the test with SN12C renal, 0.612 µM; in the test with OVCAR-5 ovarian it was 2.2 µM; in the test with SK-MEL-28 melanoma, 2.13 µM. For the same compound, the GI50 is 0.0705 µM in the test with RPMI-8226 leukemia, 0.317 µM in the test on DU-145 prostate, 0.679 µM in the test with SNB-19 CNS and 0.831 µM with HCT-15 colon. Further, the TGI was 0.93 µM in the test with SF-539 CNS; above 15 µM with NCI/ADR-RES ovarian; 0.372 µM with OVCAR-3 ovarian; above 15 µM in the test on SN12C renal; above 15 µM with OVCAR-5 ovarian; above 15 µM with SK-MEL-28 melanoma. Moreover, the TGI was 1.89 µM in the test on RPMI-8226 leukemia, above 3.68 µM with DU-145 prostate, above 15 µM in the test with SNB-19 CNS and above 15 µM in the test on HCT-15 colon.

For the compound `COC(=O)C1=CO[C@@H](OC2OC(CO)C(O)C(O)C2O)[C@@H]2[C@H](C)[C@@H](O)[C@@H](O)[C@]12O` (stereo partly drawn), the TGI in the test with SF-539 CNS, in the test on NCI/ADR-RES ovarian, in the test on OVCAR-3 ovarian, with SN12C renal, in the test with OVCAR-5 ovarian and in the test on SK-MEL-28 melanoma was above 100 µM each time. The TGI with RPMI-8226 leukemia, with DU-145 prostate, in the test on SNB-19 CNS and with HCT-15 colon was above 100 µM each time.

For `CCOC(=O)C(O)Cc1cnc2ccccc2n1` (stereo not drawn), the TGI with SF-539 CNS, with NCI/ADR-RES ovarian, in the test on OVCAR-3 ovarian, with SN12C renal, in the test on OVCAR-5 ovarian and in the test with SK-MEL-28 melanoma was above 100 µM in each case. For the same compound, the TGI in the test on RPMI-8226 leukemia, in the test with DU-145 prostate, in the test on SNB-19 CNS and in the test with HCT-15 colon was above 100 µM each time.

Regarding `Clc1ccc(N/N=C(\c2ccccc2)c2ccccn2)nc1`, the GI50 in the test with SF-539 CNS is 0.297 µM; with NCI/ADR-RES ovarian, 0.109 µM; with OVCAR-3 ovarian, 0.0379 µM; in the test on SN12C renal it was 0.251 µM; with OVCAR-5 ovarian it was 0.234 µM; in the test with SK-MEL-28 melanoma it was 0.335 µM. Also, the GI50 was 0.128 µM with RPMI-8226 leukemia, 0.243 µM with DU-145 prostate, 0.466 µM in the test on SNB-19 CNS and 0.0505 µM in the test with HCT-15 colon. Also, the TGI in the test with SF-539 CNS was 5.57 µM and 9.47 µM; in the test on OVCAR-3 ovarian, 11.2 µM and > 28.6 µM; in the test on SN12C renal, > 49.2 µM and 33.1 µM; with OVCAR-5 ovarian, above 100 µM; in the test with SK-MEL-28 melanoma, above 100 µM; in the test with RPMI-8226 leukemia, above 52.6 µM. In addition, the TGI in the test with DU-145 prostate was above 100 µM; in the test with SNB-19 CNS, above 100 µM; in the test on HCT-15 colon it was > 38.3 µM and 14.1 µM.

`CC(=O)[O][Hg][CH2]C1(C)COC(C)([CH2][Hg][O]C(C)=O)CO1` (stereo not drawn): the GI50 was 17.7 µM with SF-539 CNS; 19.1 µM in the test with NCI/ADR-RES ovarian; 0.887 µM in the test with SN12C renal; above 49.2 µM in the test with OVCAR-5 ovarian; 1.64 µM in the test on SK-MEL-28 melanoma; 1.17 µM with RPMI-8226 leukemia. Also, the GI50 in the test with DU-145 prostate is 10.4 µM; in the test with SNB-19 CNS, 16.1 µM; in the test with HCT-15 colon it was 0.432 µM. Further, the TGI was 32.6 µM in the test with SF-539 CNS; 46 µM in the test with NCI/ADR-RES ovarian; 0.0232 µM in the test with OVCAR-3 ovarian; 4.49 µM with SN12C renal; above 63.8 µM in the test with OVCAR-5 ovarian; 3.06 µM in the test on SK-MEL-28 melanoma. Also, the TGI was 8.29 µM in the test with RPMI-8226 leukemia, 23.1 µM in the test on DU-145 prostate, 30 µM with SNB-19 CNS and 0.9 µM with HCT-15 colon.
